Values of other authors as cited in PubChem BioAssay AID1259409 (Chemical Carcinogenesis Research Information System (CCRIS), 2018).

Test system: rodent chemically induced tumor inhibition, incidence and multiplicity
Assay: CCRIS tumor inhibitor studies
Details: for outcome: Carcinogen: NONE, Strain/Sex: APC/MIN/MALE

In the case of `NCCCC(N)(C(=O)O)C(F)F` (centres undefined), the “tumour outcome (control, treated, inhibition, significance)” value (Carcinogen: N-METHYL-N-NITROSOUREA, 684-93-5, Dose [Inhibitor]: 0.5 ML OF 2% AGENT IN 0.9% SALINE SOLUTION TWICE IN WK 1 THEN ONCE 2 HR POST CARCINOGEN TREATMENT THEN TWICE IN WK 2 (ST, Route [Inhibitor]: INTRAVESICAL, Species: RAT, Strain/Sex: F344/MALE, Target Tissue: Type of Lesion: BLADDER: CARCINOMA, Dose [Carcinogen]: 0.25 MG IN 0.5 ML OF 0.9% SALINE SOLUTION ONCE, Promoter: URINE) is given as 31/36 (86%), 27/38 (71%), 17%, not calculated, the “tumour outcome (control, treated, inhibition, significance)” value (Carcinogen: N-METHYL-N-NITROSOUREA, 684-93-5, Dose [Inhibitor]: 2% IN URINE 2/WK FOR 30 WK BEGINNING 1 WK POST CARCINOGEN DOSE (STUDY DURATION: 35 WK), Route [Inhibitor]: INTRAVESICAL, Species: RAT, Strain/Sex: F344/MALE, Target Tissue: Type of Lesion: BLADDER: CARCINOMA, Dose [Carcinogen]: 0.25 MG IN 0.5 ML OF 0.9% SALINE SOLUTION ONCE, Promoter: URINE) is given as 25/36 (69%), 13/35 (37%), 46%, p<0.025 and the “tumour outcome (control, treated, inhibition, significance)” value (Carcinogen: N-METHYL-N-NITROSOUREA, 684-93-5, Dose [Inhibitor]: 2% IN URINE 2/WK FOR 41 WK BEGINNING 1 WK POST CARCINOGEN DOSE (STUDY DURATION: 50 WK), Route [Inhibitor]: INTRAVESICAL, Species: RAT, Strain/Sex: F344/MALE, Target Tissue: Type of Lesion: BLADDER: CARCINOMA, Dose [Carcinogen]: 0.25 MG IN 0.5 ML OF 0.9% SALINE SOLUTION ONCE, Promoter: URINE) is given as 31/36 (86%), 30/38 (79%), 8%, not calculated. For the same compound, the outcome (Dose [Inhibitor]: 0.5% IN DRINKING WATER FOR 2 MONTHS (STUDY DURATION: 2 MONTHS), Route [Inhibitor]: ORAL, Species: MOUSE, Target Tissue: Type of Lesion: DISTAL SMALL INTESTINE: TUMOR, Promoter: NONE) was 10.38, 3.67, 65%, p<0.001, the outcome (Dose [Inhibitor]: 0.5% IN DRINKING WATER FOR 2 MONTHS (STUDY DURATION: 2 MONTHS), Route [Inhibitor]: ORAL, Species: MOUSE, Target Tissue: Type of Lesion: MIDDLE SMALL INTESTINE: TUMOR, Promoter: NONE) was 23.75, 19.80, 17%, not significant and the outcome (Dose [Inhibitor]: 0.5% IN DRINKING WATER FOR 2 MONTHS (STUDY DURATION: 2 MONTHS), Route [Inhibitor]: ORAL, Species: MOUSE, Target Tissue: Type of Lesion: PROXIMAL SMALL INTESTINE: TUMOR, Promoter: NONE) was 7.63, 6.40, 16%, not significant. The outcome (Dose [Inhibitor]: 1.0% IN DRINKING WATER FOR 2 MONTHS (STUDY DURATION: 2 MONTHS), Route [Inhibitor]: ORAL, Species: MOUSE, Target Tissue: Type of Lesion: DISTAL SMALL INTESTINE: TUMOR, Promoter: NONE) was 10.38, 1.73, 83%, p<0.001, the outcome (Dose [Inhibitor]: 1.0% IN DRINKING WATER FOR 2 MONTHS (STUDY DURATION: 2 MONTHS), Route [Inhibitor]: ORAL, Species: MOUSE, Target Tissue: Type of Lesion: MIDDLE SMALL INTESTINE: TUMOR, Promoter: NONE) was 23.75, 13.80, 42%,p<0.01 and the “tumour outcome (control, treated, inhibition, significance)” value (Carcinogen: UV-A (20%), UV-B (80%) (WESTINGHOUSE FS320 SUNLAMP IN 280-400 NM), Dose [Inhibitor]: 0, 0.4% IN DRINKING WATER FOR 8 WK BEGINNING 22 WK POST CARCINOGEN FIRST DOSE (STUDY DURATION: 30 WK), Route [Inhibitor]: ORAL, Species: MOUSE, Strain/Sex: SKH:HR-1-HBR/FEMALE, Target Tissue: Type of Lesion: SKIN: TUMOR, Dose [Carcinogen]: 90 MJ/CM2 3 TIMES/WK, DOSE INCREASED BY 10% UNTIL REACHED 175 MJ/CM^2, BEGINNING 2 D POST AGENT DOSE, TREATMENT WS STOPP, Promoter: NONE) was “?/? (100%), ?/? (95%), 5%, data presented graphically, not calculated”. The “tumour outcome (control, treated, inhibition, significance)” value (Carcinogen: UV-A (20%), UV-B (80%) (WESTINGHOUSE FS320 SUNLAMP IN 280-400 NM), Dose [Inhibitor]: 0, 0.4% IN DRINKING WATER FOR 18 WK BEGINNING 12 WK POST CARCINOGEN FIRST DOSE (STUDY DURATION: 30 WK), Route [Inhibitor]: ORAL, Species: MOUSE, Strain/Sex: SKH:HR-1-HBR/FEMALE, Target Tissue: Type of Lesion: SKIN: TUMOR, Dose [Carcinogen]: 90 MJ/CM2 3 TIMES/WK, DOSE INCREASED BY 10% UNTIL REACHED 175 MJ/CM^2, BEGINNING 2 D POST AGENT DOSE, TREATMENT WS STOPP, Promoter: NONE) was “?/? (100%), ?/? (100%), 0%, data presented graphically, not calculated”, the “tumour outcome (control, treated, inhibition, significance)” value (Carcinogen: UV-A (20%), UV-B (80%) (WESTINGHOUSE FS320 SUNLAMP IN 280-400 NM), Dose [Inhibitor]: 0, 0.4% IN DRINKING WATER FOR DURATION OF STUDY (STUDY DURATION: 30 WK), Route [Inhibitor]: ORAL, Species: MOUSE, Strain/Sex: SKH:HR-1-HBR/FEMALE, Target Tissue: Type of Lesion: SKIN: TUMOR, Dose [Carcinogen]: 90 MJ/CM2 3 TIMES/WK, DOSE INCREASED BY 10% UNTIL REACHED 175 MJ/CM^2, BEGINNING 2 D POST AGENT DOSE, TREATMENT WS STOPP, Promoter: NONE) was “?/? (100%), ?/? (73%), 27%, data presented graphically, not calculated” and the “tumour outcome (control, treated, inhibition, significance)” value (Carcinogen: UVB IRRADIATION, Dose [Inhibitor]: 0, 1% IN DRINKING WATER FOR DURATION OF STUDY BEGINNING 3 WK PRIOR TO CARCINOGEN TREATMENT (STUDY DURATION: 36 WK), Route [Inhibitor]: ORAL, Species: MOUSE, Strain/Sex: BALB/FEMALE, Target Tissue: Type of Lesion: SKIN: TUMOR, Dose [Carcinogen]: 1273 KJM2 TOTAL DOSE ADMINISTERED IN 30 MIN TREATMENTS 5 D/WK, Promoter: NONE USED) was 38%, 9%, 76%, p=0.025. The “tumour outcome (control, treated, inhibition, significance)” value (Dose [Inhibitor]: 0, 2% IN DRINKING WATER FOR 3 WK THEN REDUCED TO 1% FOR DURATION OF STUDY (STUDY DURATION: 9 MO), Route [Inhibitor]: ORAL, Species: RAT, Strain/Sex: F344/MALE, Target Tissue: Type of Lesion: LIVER: HEPATOCELLULAR CARCINOMA, Dose [Carcinogen]: 25 UG IN 0.2 ML DMSO 5 D/WK FOR 4 WK, Promoter: NONE USED) was 40%, 16%, 60%, p<0.01 and the “tumour outcome (control, treated, inhibition, significance)” value (Dose [Inhibitor]: 0, 2% IN DRINKING WATER FOR 3 WK THEN REDUCED TO 1% FOR DURATION OF STUDY ADMINISTERED TO RATS MAINTAINED ON CHOLINE-DEF, Route [Inhibitor]: ORAL, Species: RAT, Strain/Sex: F344/MALE, Target Tissue: Type of Lesion: LIVER: HEPATOCELLULAR CARCINOMA, Dose [Carcinogen]: 25 UG IN 0.2 ML DMSO 5 D/WK FOR 4 WK, Promoter: NONE USED) was 71%, 28%, 61%, not calculated.
